Assays:
[1] = biological target: ATP-dependent translocase ABCB1 (Homo sapiens, UniProt P08183); assay: TP_TRANSPORTER: transepithelial transport (basal to apical) in MDR1-expressing LLC-PK1 cells; assay type: functional, cell-based; conditions: pig
[2] = biological target: ATP-dependent translocase ABCB1 (Mus musculus, UniProt P21447); assay: TP_TRANSPORTER: transepithelial transport (basal to apical) in mdr1a-expressing LLC-PK1 cell; assay type: functional, cell-based; conditions: pig
[3] = biological target: P-glycoprotein 1 and 3 (MDR1a/MDR1b) (Mus musculus, UniProt P21447+P06795); assay: TP_TRANSPORTER: increase in brain concentration in mdr1a/1b(-/-) mouse; assay type: functional, organism-based; conditions: in vivo

Measured: Activity

ATP-dependent translocase ABCB1 (Homo sapiens, UniProt P08183), sequence (P08183 whole entry): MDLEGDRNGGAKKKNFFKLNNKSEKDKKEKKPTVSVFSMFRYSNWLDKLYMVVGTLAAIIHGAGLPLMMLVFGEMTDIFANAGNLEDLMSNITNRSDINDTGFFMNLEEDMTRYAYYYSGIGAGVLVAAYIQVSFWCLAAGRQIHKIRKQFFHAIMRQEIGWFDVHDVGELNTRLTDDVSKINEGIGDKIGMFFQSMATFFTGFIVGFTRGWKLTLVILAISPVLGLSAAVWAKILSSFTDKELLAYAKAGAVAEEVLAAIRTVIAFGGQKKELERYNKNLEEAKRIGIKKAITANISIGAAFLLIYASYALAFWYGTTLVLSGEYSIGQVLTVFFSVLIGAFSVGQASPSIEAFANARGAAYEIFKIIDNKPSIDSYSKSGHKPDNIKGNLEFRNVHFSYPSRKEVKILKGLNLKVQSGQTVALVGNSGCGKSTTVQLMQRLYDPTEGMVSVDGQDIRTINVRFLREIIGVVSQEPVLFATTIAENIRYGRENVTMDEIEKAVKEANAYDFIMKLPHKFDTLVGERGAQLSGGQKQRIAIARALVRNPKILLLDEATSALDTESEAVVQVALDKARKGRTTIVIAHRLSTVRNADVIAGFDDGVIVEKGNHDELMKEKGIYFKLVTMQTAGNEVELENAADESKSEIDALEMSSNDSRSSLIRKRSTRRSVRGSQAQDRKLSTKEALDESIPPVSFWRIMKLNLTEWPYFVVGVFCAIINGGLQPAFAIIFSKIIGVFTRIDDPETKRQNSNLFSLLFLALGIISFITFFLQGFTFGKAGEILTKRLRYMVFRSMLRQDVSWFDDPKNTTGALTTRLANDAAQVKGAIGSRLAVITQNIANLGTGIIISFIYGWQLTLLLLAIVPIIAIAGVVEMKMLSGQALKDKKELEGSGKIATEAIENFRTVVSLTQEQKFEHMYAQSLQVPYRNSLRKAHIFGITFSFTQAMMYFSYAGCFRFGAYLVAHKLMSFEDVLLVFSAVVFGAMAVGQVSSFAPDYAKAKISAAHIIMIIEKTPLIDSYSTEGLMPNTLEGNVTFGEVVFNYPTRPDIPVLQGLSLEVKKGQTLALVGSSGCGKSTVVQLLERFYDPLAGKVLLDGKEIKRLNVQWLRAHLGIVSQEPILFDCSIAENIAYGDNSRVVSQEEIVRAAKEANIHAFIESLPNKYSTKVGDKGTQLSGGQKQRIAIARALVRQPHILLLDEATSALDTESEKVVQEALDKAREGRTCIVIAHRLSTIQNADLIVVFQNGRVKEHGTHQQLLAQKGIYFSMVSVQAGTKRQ
ATP-dependent translocase ABCB1 (Mus musculus, UniProt P21447), sequence (P21447 whole entry): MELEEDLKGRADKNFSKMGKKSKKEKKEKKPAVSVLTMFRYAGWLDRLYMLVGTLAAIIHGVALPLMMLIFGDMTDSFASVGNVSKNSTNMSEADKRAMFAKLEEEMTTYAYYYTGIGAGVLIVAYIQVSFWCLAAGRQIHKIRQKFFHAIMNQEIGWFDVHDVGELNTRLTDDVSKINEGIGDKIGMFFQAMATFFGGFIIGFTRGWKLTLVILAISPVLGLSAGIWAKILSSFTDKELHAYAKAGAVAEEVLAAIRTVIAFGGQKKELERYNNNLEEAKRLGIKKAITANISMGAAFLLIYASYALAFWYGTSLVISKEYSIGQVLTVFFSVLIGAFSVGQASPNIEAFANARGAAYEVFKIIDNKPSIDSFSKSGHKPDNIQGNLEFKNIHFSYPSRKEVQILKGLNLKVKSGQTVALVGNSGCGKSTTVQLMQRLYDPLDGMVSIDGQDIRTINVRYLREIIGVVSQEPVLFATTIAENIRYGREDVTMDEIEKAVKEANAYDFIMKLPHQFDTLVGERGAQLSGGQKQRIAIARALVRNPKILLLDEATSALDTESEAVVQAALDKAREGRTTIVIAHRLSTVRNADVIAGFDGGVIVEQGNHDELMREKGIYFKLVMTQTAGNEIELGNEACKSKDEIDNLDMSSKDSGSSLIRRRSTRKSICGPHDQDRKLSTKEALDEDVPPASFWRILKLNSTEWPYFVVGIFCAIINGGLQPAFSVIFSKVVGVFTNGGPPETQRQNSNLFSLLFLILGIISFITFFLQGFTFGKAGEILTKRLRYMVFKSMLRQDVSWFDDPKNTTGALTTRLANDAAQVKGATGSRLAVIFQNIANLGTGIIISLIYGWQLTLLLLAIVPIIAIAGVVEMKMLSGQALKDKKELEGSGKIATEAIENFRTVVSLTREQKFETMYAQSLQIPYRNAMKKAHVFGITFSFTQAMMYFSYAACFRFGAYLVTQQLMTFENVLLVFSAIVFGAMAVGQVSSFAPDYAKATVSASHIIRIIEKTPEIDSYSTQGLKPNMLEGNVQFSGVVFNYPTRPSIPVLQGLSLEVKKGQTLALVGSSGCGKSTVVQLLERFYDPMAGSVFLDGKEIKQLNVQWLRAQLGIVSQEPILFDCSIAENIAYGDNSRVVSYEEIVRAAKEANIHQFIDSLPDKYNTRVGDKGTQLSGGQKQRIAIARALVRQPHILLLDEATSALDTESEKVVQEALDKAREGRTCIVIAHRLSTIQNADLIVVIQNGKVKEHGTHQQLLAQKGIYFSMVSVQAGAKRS

CN(C(=O)C(c1ccccc1)c1ccccc1)[C@H](CN1CC[C@H](O)C1)c1ccccc1 [ASIMADOLINE]
substrate [+]: all assays above
